# In paper PMC11679793, “Structure-Activity Relationship Study of Majusculamide D: Overcoming Metabolic Instability and Severe Toxicity with a Fluoro Analogue” (Marine Drugs, 2024):
# Where two headings read alike, the source gives them in different places.
# Experiments:
# [1] = tested on: β-catenin, Claudin-1, E-cadherin, Fibronectin, Snail, TCF8/ZEB1, Vimentin in PANC-1 cells and MIA PaCa-2 cells; experiment: Western blot assay of Wnt/EMT biomarkers; type: cell-based; conditions: PANC-1 and MIA PaCa-2 cells
# Source text: It is well established that the metastasis of tumors was accompanied by the change of several special proteins. β-catenin is an intracellular signaling molecule primarily involved in the Wnt signaling pathway and regulates cell proliferation and differentiation. The abnormal activation of β-catenin is associated with tumor development and increased invasiveness. Claudin-1 belongs to the tight junction protein family, which maintains the barrier function between cells and is correlated with some cancers’ metastatic ability. E-cadherin is an intercellular adhesion molecule, and its decreased expression is common in the phenotype transition process of cancer cells, such as epithelial-mesenchymal transition (EMT), which is a key step in cancer metastasis. Fibronectin is an extracellular matrix protein involved in cell adhesion and migration, and its expression is often positively associated with cancer’s metastatic ability. Snail and TCF8/ZEB1 both are transcription factors that can inhibit the expression of E-cadherin and promote the EMT process. Vimentin is a marker protein of mesenchymal cells, and its expression increases during EMT, further contribute to the process of metastasis by supporting the structural changes needed for cell migration and invasion. […]
# Cells were lysed in RIPA lysis buffer (Solarbio, China). The protein concentration was determined using the BCA assay. […]
# PANC-1 cells = experiment: MTT cell activity assay (inhibitory activity against PANC-1 cells); type: cell-based
# Protocol: A total of 3000 PANC-1 cells were resuspended in 200 μL of culture medium and seeded into 96-well plates. After 24 h, the cells were treated with the compound and incubated for an additional 72 h. Following the incubation, 20 μL of 5 mg/mL MTT solution (Solarbio, China) was added to each well in the dark, and the cells were incubated for another 4 h. After incubation, the culture medium was discarded, and the wells were washed with PBS to remove any residual medium. Then, 200 μL of DMSO was added to each well to fully dissolve the formazan crystals, and the solution was mixed thoroughly. The absorbance was measured at 492 nm/570 nm, and the data were analyzed using GraphPad Prism.
# PANC-1 xenograft tumor = tested on: PANC-1 xenograft tumor
# Protocol: Furthermore, a xenografted murine subcutaneous tumor model was employed to evaluate the effects of majusculamide D and the optimized analogues 1c and 1n (Figure 1B). PANC1-bearing BALB/c nude mice were separated randomly, with a total of six mice in each group. Gemcitabine was chosen as the positive drug; the mice were then administered intravenous doses of 1c (5 mg/kg), 1n (5 mg/kg), 1a (5 mg/kg), and gemcitabine (20 mg/kg) every other day for 24 days.
# A total of 4 × 10^6 PANC-1 cells suspended in 100 μL PBS were subcutaneously injected into the right shoulder region of BALB/c nude mice. When the tumor volume reached approximately 200 mm^3, the mice were euthanized, and the tumor tissues were harvested and designated as F1 generation. Tumor tissues were then cut into small cubes measuring approximately 3 × 3 × 3 mm, which were implanted into new BALB/c mice to propagate the tumors. This procedure was repeated to obtain the F2 generation of tumors. Finally, mice bearing F3 generation transplant tumors were used for drug treatment experiments. When the tumor volume reached approximately 80–100 mm^3, the mice were randomly divided into five groups (n = 6): control group, 5 mg/kg compound 1a group, 5 mg/kg compound 1c group, 5 mg/kg compound 1n group, and 20 mg/kg gemcitabine group. The compounds 1a, 1c, and 1n were dissolved in DMSO and then diluted with 0.9% physiological saline to achieve a final concentration of 0.5 mg/mL as the dosing concentration. Gemcitabine was dissolved directly in 0.9% saline to achieve a final concentration of 2 mg/mL as the dosing concentration. The compounds were administered intravenously every two days, alternating between the left and right tail veins to minimize vein damage. Injections were performed using ultra-fine syringes (30G needles) to reduce stress and ensure consistent delivery. The body weight and tumor volume of the mice were measured every four days. On day 24, the mice were euthanized, and the tumor weights were recorded. Tumor volume (V) was calculated using the formula: V = (ab^2)/2, with “a” representing the long diameter of the tumor and “b” representing the short diameter of the tumor. […] Tumor weight was used to calculate the tumor inhibition rate (Figure 1G).
# [2] = Preliminary water solubility test; type: physicochemical; conditions: 25 °C, ultrasonic treatment 30 min, visual
structure (smiles),measurement,setting,value
"CCCCC(C)CC(C)C(=O)N(C)C(Cc1ccc(OC)cc1)C(=O)NC(C(=O)N(C)C(C(=O)N1CC(O)CC1C(=O)N1C(=O)C=CC1C)C(C)C)C(C)OC(C)=O (stereo not shown) [Compound 1a, Majusculamide D]","expression levels of β-catenin, Fibronectin, Snail, TCF8/ZEB1 and Vimentin",[1]; increasing concentrations,decreased
same,expression levels of Claudin-1 and E-cadherin,[1]; rising concentrations,increased
same,IC50,"PANC-1 cells; Homo sapiens, PANC-1, 72 h, read-out: IC50 (nM), inhibitory activity against PANC-1 cells (Table 2), PANC-1 cells, 72 h incubation, mean ± SD, n = 3, Table 2 series",1.99 ± 0.68 nM
same,IC50,"PANC-1 cells; read-out: IC50 (nM), inhibitory activity against PANC-1 cells (Table 1), PANC-1 cells, 72 h incubation, mean ± SD, n = 3",1.88 ± 0.82 nM
same,mortality rate among the mice,"PANC-1 xenograft tumor; 5 mg/kg i.v. every other day, 24 days, n = 6",50%
same,mice dead in treated group,"PANC-1 xenograft tumor; 5 mg/kg i.v., xenografted mouse model, six mice per group",3 mice
same,tumor inhibition rate (%),"PANC-1 xenograft tumor; calculated from tumor weight, day 24, 1a, 1c, 1n 5 mg/kg, gemcitabine 20 mg/kg i.v.",64.8%
same,tumor weight,"PANC-1 xenograft tumor; day 24, i.v. every other day, 1a, 1n 5 mg/kg, gemcitabine 20 mg/kg, mean ± SD",0.393 ± 0.049 g
same,tumor volume,"PANC-1 xenograft tumor; i.v. every other day for 24 days, 1a, 1n 5 mg/kg, gemcitabine 20 mg/kg, mean ± SD, n = 6",353.0 ± 66.7 mm^3
same,Solubility (mg/mL),[2],Insoluble
